Measurements as given in patent publication US20040265252A1, “Compounds stimulating and inhibiting melanin formation, and methods for screening these compounds” (New York University, priority 2003, published 2004).

Assays:
[1] = system: tyrosinase; test: Tyrosinase assay on conditioned media; format: cell-based; details: conditioned media of treated cells
[2] = target: T1, tyrosinase (Mus musculus, UniProt P11344); test: Tyrosinase assay on pre-lysed cells; format: biochemical; details: pre-lysed cells treated with compound
T1 construct: tyrosinase assay on cell lysates derived from whole cells; endogenous in cells; host or cells: melanocytes
T1 sequence (P11344 19-533): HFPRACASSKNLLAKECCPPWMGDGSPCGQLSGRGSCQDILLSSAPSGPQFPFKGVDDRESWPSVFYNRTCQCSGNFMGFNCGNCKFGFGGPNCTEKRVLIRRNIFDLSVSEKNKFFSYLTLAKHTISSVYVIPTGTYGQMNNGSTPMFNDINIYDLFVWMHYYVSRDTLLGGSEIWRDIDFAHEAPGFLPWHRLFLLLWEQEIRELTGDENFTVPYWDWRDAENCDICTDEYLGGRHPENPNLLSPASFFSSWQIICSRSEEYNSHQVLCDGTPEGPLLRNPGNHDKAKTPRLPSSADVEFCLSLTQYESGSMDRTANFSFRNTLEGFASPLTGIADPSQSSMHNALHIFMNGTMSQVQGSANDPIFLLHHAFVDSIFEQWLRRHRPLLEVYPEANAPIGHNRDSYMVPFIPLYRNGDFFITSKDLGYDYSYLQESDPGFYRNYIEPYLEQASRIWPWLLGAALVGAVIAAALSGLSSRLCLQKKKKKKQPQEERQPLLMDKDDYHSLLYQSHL

[3] = system: melan-a melanocytes; test: Melanin assay / pigmentation of cultured melanocytes; format: cell-based, mouse
Description: The numbers above the bars indicate the percent increase in melanin production relative to the untreated control. For this assay, melan-a melanocytes were cultured in DMEM supplements with 10% FCS, 1% L-glutamine, 1% penicillin/streptomycin, and 40 nM TPA. The cultures were maintained at 37° C., 5% CO2. The cells were seeded at 5×10^4 cells per well in 24 well plates and treated for 72 hours. Photographs were taken after 72 hours at 40× magnification. The cells were harvested, centrifuged, and the protein was extracted from the pellet with 1:1 ethanol:ether. The melanin pellets were solubilized in 20% DMSO/2N NaOH. Samples were transferred to a 96-well plate and the optical density was read at 490 nm using a Biorad 550 spectrophotometer.
The cells were rinsed with phosphate buffered saline (PBS) and lysed with an extraction buffer of […] Tris, pH 7.5; 2 mM ethylenediamine tetraacetic acid (EDTA), pH 7.8; 150 mM NaCl; 1% Titron X-100, with protease inhibitor cocktail at 4° C. The cell extracts were then spun at 12,000 rpm for 10 minutes at 4° C. The remaining pellet was assayed for melanin by rinsing twice with ethanol-ether (1:1) and dissolving in 200 microL of 2N NaOH in 20% DMSO at 60° C. A 100 microL aliquot of the resulting solution was then measured for absorbance at […].

[4] = target: T2, mitochondrial F1F0 ATPase (Mus musculus, UniProt P56480+Q03265+Q9CR84); test: Affinity chromatography on immobilized PPA (PPA-Affi) with competition, melanocyte extracts; format: binding; details: for competition with ATPase binding to PPA affinity matrix: melan-a extracts, competitor 30 minutes at 4° C., antibodies to beta and alpha subunits
T2 construct: endogenous in cells; host or cells: Melan-a murine melanocytes
Description: Melanocyte extracts were incubated with PPA-Affi in the presence of the compounds shown. After extensive washing, bound proteins were then eluted with SDS-containing buffer and subjected to SDS-PAGE and silver staining. […] The binding of mitochondrial ATPase was inhibited not only by PPA itself but also by oligomycin, a known mitochondrial ATPase inhibitor.
FIG. 5 is another illustration that mitochondrial ATPase is the target of PPA. The experimental protocol were similar to those described above, but rather than silver stain, immunoblotting was conducted with antibodies to the beta and alpha subunits of the mitochondrial ATPase. The primary antibody in A was anti-F1-ATPase beta subunit antibody (1:2500, 1 hour), and the primary antibody in B was anti-ATPase alpha subunit antibody (1:2500, 1 hour). The secondary antibody was anti-mouse Goat IgG (1:2500, 1 hour).
For this experiment, the cell source was Melan-a (murine melanocyte). The reaction volume was 147 microL of protein extract (0.3 mg/mL)+147 microL bead buffer+6 microL competitor (aurovertin or PPA6 or DMSO). The competition took place for 30 minutes at 4° C. with rocking. The bead volume was 40 microL of 50% slurry. The beads were washed with 1 mL bead buffer seven times. Elution was with 40 microL+30 microL Laemmli buffer, heating for 4 minutes at 90° C.
For the gel electrophoresis, the gel was 10% SDS-PAGE gel, 20-well combination. The loading volume was 25 microL (2nd elution). Running was 30V, overnight.
Protein was extracted from cells by incubation with extraction buffer (1 mM CaCl2, 150 mM NaCL; 10 mM Tris, pH 7.4; 1% Triton X-100, 1 mM PMSF plus protease inhibitor cocktail (Roche, NJ, USA) for five minutes on ice. Crude lysate was centrifuged at 13,000 rpm for ten minutes. The protein concentration of the supernatant was measured by the Bradford assay (Bio-Rad, CA) and adjusted to a final concentration of 1 microg/microL prior to affinity chromatography. […]

[5] = target: T3, mitochondrial ATPase (beta subunit, OSCP) (Homo sapiens, UniProt P05496+P06576+P48047); test: PPA-Affi affinity binding and competition, SK Mel19 extracts; details: SK Mel19 protein extract
T3 construct: Using human melanoma cell source SK Mel 19, the reaction volume was 147 microL of protein extract; endogenous in cells; host or cells: SK Mel19 human melanoma cells
Description: (§1) Using human melanoma cell source SK Mel 19, the reaction volume was 147 microL of protein extract (1.0 mg/mL)+147 microL bead buffer+6 microL competitor (oligomycin) or S+DMSO. Competition was effected for 30 minutes at 4° C. with rocking. The bead volume was 40 microL of 50% slurry. Washing was five times with 1 mL bead buffer, and elution was with 40 microL Laemmli buffer, with heating for 4 minutes at 90° C. Gel electrophoresis was with 10% SDS-PAGE gel, 20 well combination. Loading volume was 35 microL, and running was 30V, overnight.
as §1, with “99” for “147”, “mg/mL)+99” for “mg/mL)+147”, “buffer+2” for “buffer+6”, “DMSO. Incubation” for “S+DMSO. Competition”, “100V for one hour.” for “30V, overnight.”

| Compound | secreted tyrosinase activity [1] | tyrosinase activity [2] | pigmentation (melanin production) [3] | competition with ATPase binding to PPA affinity matrix [4] | inhibition of binding of mitochondrial ATPase to PPA-Affi ([4]; melanocyte extracts, SDS-PAGE and silver staining) | elution of beta subunit and OSCP bound to PPA-Affi [5] |
| --- | --- | --- | --- | --- | --- | --- |
| CC(C)Cn1c(=O)n(C)c(=O)c2[nH]cnc21 [IBMX, 3-Isobutyl-1-methylxanthine] | large increase in secreted enzyme activity | only a marginal change | – | – | – | – |
| NC(=S)Nc1ccccc1 [PTU, phenylthiourea] | – | significant decrease in tyrosinase activity | – | – | – | – |
| CC[C@H]1O[C@]2(C)[C@H](OC(C)=O)[C@@]1(C)O[C@@H](/C=C/C=C/C=C/c1oc(=O)cc(OC)c1C)[C@@H]2O [aurovertin, aurovertin B] | – | – | promote pigmentation | do not compete | – | – |
| CC[C@H]1/C=C/C=C/C[C@@H](C)[C@H](O)[C@@](C)(O)C(=O)[C@@H](C)[C@H](O)[C@@H](C)C(=O)[C@@H](C)[C@H](O)[C@@H](C)/C=C/C(=O)O[C@@H]2[C@H](C)[C@H](CC1)O[C@]1(CC[C@H](C)[C@H](C[C@@H](C)O)O1)[C@H]2C [oligomycin, Oligomycin] | – | – | promote pigmentation | competed with ATPase binding | inhibited | eluted by oligomycin |
